Assays:
MDA-MB-231 cells [1] = test: Detection of intracellular ROS (DCFH-DA, flow cytometry); assay type: cell-based, human; conditions: 72 h, control 4.56%
Description: MDA-MB-231 cells were seeded overnight in 6-well plates, treated with different concentrations of 22e (0, 0.475, 0.95 and 1.9 μM) for another 72 h. After digestion and washing, the cell suspension was prepared and cultured with fluorescent probe 2′,7′-dichlorodihydrofluorescein diacetate (DCFH-DA, Sigma-Aldrich, Darmstadt, Germany) at 37 °C for 20 min. Then, after the cells were washed, the intracellular reactive oxygen species (ROS) was measured by flow cytometry at 488 nm (excitation wavelength) and 530 nm (emission wavelength).

[2] = system: TNBC cell line MDA-MB-231; test: CCK-8 assay, antiproliferative activity against MDA-MB-231; conditions: Homo sapiens, MDA-MB-231, 72 h, read-out: IC50 MDA-MB-231
MDA-MB-231 cells [3] = test: Adhesion assay; assay type: cell-based, human; conditions: 22e 0.475, 0.95 and 1.9 μM, 72 h
Description: Different concentrations of 22e (0, 0.475, 0.95 and 1.9 μM) were used to treat MDA-MB-231 cells for 72 h. Then the serum-free medium containing CaM stain was added, cell suspension (100 μL) was cultured to 96-well plates (2000 cells/well) for 1 h. Finally, plates were washed with PBS, fixed with 3.7% formaldehyde, washed with PBS again, and took pictures with fluorescence microscope.

MDA-MB-231 cells [4] = test: Cell-cycle analysis (PI staining, flow cytometry); assay type: cell-based, human; conditions: for cells in G2/M phase / cells in S phase / cells in G1 phase: 72 h; for cells in G2/M phase: control 11.04%; for cells in S phase: control 36.51%; for cells in G1 phase: control 52.44%
MDA-MB-231 cells [5] = test: Wound healing assay (migration); assay type: cell-based, human; conditions: 22e 0.475, 0.95 and 1.9 μM, 24 h, versus untreated cells
Description: MDA-MB-231 cells were cultured in 6-well plates at 37 °C for 24 h. After the cells attached, different concentrations of 22e (0, 0.475, 0.95 and 1.9 μM) were added. Sterile pipette tips were used to scratch evenly in 6-well plates, the floating cells were washed away with PBS, and the fresh culture medium was replaced. After incubation for 24 h, the cells were photographed and the migration distance was measured.

MDA-MB-231 cells [6] = test: Cell apoptosis assay (annexin V-FITC/PI, flow cytometry); assay type: cell-based, human; conditions: 72 h, control 5.85%
Description: MDA-MB-231 cells were cultured in 6-well plates at 37 °C for 24 h, and then different concentrations of 22e (0, 0.475, 0.95 and 1.9 μM) were added. After 72 h of incubation, the cells were collected and suspended in binding buffer (500 μL). Finally, annexin V-fluorescein isothiocyanate (Annexin V-FITC, 5 μL) and propidium iodide (PI, 5 μL) were added, and the reaction was kept at room temperature in the dark for 10 min, then cell apoptosis was measured by flow cytometry.

MDA-MB-231 cells [7] = test: Comet assay (DNA damage); assay type: cell-based, human; conditions: 72 h, control 0.48%
Description: DNA damage was detected by Comet Assay Kit (Keygen, Nanjing, China) according to the manufacturer’s instructions. Briefly, MDA-MB-231 cells were treated with 22e (0, 0.475, 0.95 and 1.9 μM) for 72 h. The collected cells were fixed on CometSlide for 15 min at 4 °C. Subsequently, the cells were incubated in lysis solution at 4 °C for 90 min, the slides were electrophoresed for 20 min, fixed in ethanol for 5 min, and stained with Vista Green DNA Dye. Finally, the data were got by fluorescence microscope.

MDA-MB-231 cells [8] = test: Transwell assay (invasion); assay type: cell-based, human; conditions: 22e 0.475, 0.95 and 1.9 μM, 24 h
Description: MDA-MB-231 cells were seeded in 24-well transwell plates upper chambers, different concentrations of 22e (0, 0.475, 0.95 and 1.9 μM) were incubated on the lower surface for 24 h. The cells in the upper surface of the membrane were removed, and the migrated or invaded cells of the membranes bottom surface were placed in 0.1% crystal violet for staining for 30 min. Finally, the cells that migrated or invaded of the chamber bottom were photographed and counted.

With `COC(=O)[C@H](Cc1ccc(N(CCCl)CCCl)cc1)NC(=O)CCCC(=O)NCc1coc2ccc(OC)cc2c1=O` [Compound 22e, Methyl (S)-3-(4-(bis(2-chloroethyl)amino)phenyl)-2–(5-(((6-methoxy-4-oxo-4H-chromen-3-yl)methyl)amino)-5-oxopentanamido)propanoate] the “DCFH-DA positive cells ratio” value (MDA-MB-231 cells [1]; 22e 0.475 μM) was 8.05%, the “DCFH-DA positive cells ratio” value (MDA-MB-231 cells [1]; 22e 0.95 μM) was 18.47% and the “DCFH-DA positive cells ratio” value (MDA-MB-231 cells [1]; 22e 1.9 μM) was 45.98%. The IC50 [2] was 1900 ± 180 nM, the “adhesion of MDA-MB-231 cells, in words” value (MDA-MB-231 cells [3]) was “inhibit the adhesion of MDA-MB-231 cells in a concentration-dependent manner” and the “cells in G2/M phase” value (MDA-MB-231 cells [4]; 22e 0.475 μM) was 12.98%. For the same compound, the “cells in S phase” value (MDA-MB-231 cells [4]; 22e 0.475 μM) was 36.58%, the “cells in G1 phase” value (MDA-MB-231 cells [4]; 22e 0.475 μM) was 50.44% and the “cells in G2/M phase” value (MDA-MB-231 cells [4]; 22e 0.95 μM) was 14.53%. For the same compound, the “cells in S phase” value (MDA-MB-231 cells [4]; 22e 0.95 μM) was 34.59%, the “cells in G1 phase” value (MDA-MB-231 cells [4]; 22e 0.95 μM) was 50.88% and the “cells in G2/M phase” value (MDA-MB-231 cells [4]; 22e 1.9 μM) was 21.28%. For the same compound, the “cells in S phase” value (MDA-MB-231 cells [4]; 22e 1.9 μM) was 36.21%, the “cells in G1 phase” value (MDA-MB-231 cells [4]; 22e 1.9 μM) was 42.51% and the “cells in the S phase (in words)” value (MDA-MB-231 cells [4]; 22e 0.475, 0.95 and 1.9 μM versus control) was “remained essentially unchanged”. For the same compound, the “wound closure distance (migration), in words” value (MDA-MB-231 cells [5]) was “significantly shortened”, the total apoptosis ratio (MDA-MB-231 cells [6]; 22e 0.475 μM) was 11.00% and the total apoptosis ratio (MDA-MB-231 cells [6]; 22e 0.95 μM) was 16.27%. For the same compound, the total apoptosis ratio (MDA-MB-231 cells [6]; 22e 1.9 μM) was 42.12%, the “tail DNA percentage” value (MDA-MB-231 cells [7]; 22e 0.475 μM) was 19.95% and the “tail DNA percentage” value (MDA-MB-231 cells [7]; 22e 0.95 μM) was 38.15%. For the same compound, the “tail DNA percentage” value (MDA-MB-231 cells [7]; 22e 1.9 μM) was 48.73% and the “MDA-MB-231 cells invasion, in words” value (MDA-MB-231 cells [8]) was “significantly inhibited”.
